From paper PMC5011001 (Biochimica et biophysica acta, 2016)

What was measured:
MAPK13 = details: read-out: IC50 [MAPK13]; cited from earlier work
[1] = target: T1, MAPK13 (unphosphorylated) (Homo sapiens, UniProt O15264); assay: Differential scanning fluorimetry; format: binding
T1 sequence (O15264 1-365): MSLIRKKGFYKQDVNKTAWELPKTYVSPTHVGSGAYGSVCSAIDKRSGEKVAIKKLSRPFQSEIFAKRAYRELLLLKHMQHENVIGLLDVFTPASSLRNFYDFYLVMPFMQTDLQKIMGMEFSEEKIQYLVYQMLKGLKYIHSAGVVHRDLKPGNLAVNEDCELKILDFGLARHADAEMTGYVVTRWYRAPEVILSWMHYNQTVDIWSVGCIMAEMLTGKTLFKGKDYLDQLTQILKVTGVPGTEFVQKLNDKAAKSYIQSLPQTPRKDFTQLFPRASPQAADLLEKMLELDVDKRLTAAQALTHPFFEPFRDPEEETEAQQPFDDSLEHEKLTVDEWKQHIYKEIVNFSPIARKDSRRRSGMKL

[2] = target: T2, activated (phosphorylated) MAPK13 (Homo sapiens, UniProt O15264); assay: MAPK13 kinase inhibition assay; format: biochemical; details: for IC50 (MAPK13): steady-state enzyme inhibition, 3 μM ATP, stated as range in words; for fold less potent (IC50) than compounds 58 and 61: MAPK13 IC50 comparison
T2 sequence (O15264 1-365): T1 sequence (O15264 1-365)

MAPK14 = MAPK14 (Homo sapiens, UniProt Q16539); assay: Differential scanning fluorimetry; format: binding
MAPK14, sequence (Q16539 whole entry, species assumed): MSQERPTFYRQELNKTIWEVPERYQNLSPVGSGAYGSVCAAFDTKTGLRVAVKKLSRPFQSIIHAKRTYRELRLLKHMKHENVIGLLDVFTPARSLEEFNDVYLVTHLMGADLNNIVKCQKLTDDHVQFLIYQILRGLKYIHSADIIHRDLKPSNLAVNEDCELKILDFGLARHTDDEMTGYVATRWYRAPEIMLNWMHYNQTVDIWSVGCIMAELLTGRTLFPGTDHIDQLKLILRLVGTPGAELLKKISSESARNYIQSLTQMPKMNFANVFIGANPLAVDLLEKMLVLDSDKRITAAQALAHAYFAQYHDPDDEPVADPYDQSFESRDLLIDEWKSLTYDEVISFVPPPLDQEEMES

Kd [1] [nM] | Structure (SMILES) | IC50 (MAPK13) [nM] | IC50 (MAPK13) [2] | fold less potent (IC50) than compounds 58 and 61 [2] | ATm-MAPK14 (°C) (MAPK14)
1900 ± 300 | Cn1nc(C(C)(C)C)cc1NC(=O)Nc1ccc(Sc2ccncc2)cc1 [Compound 58, 1-(3-tert-butyl-1-methyl-1H-pyrazol-5-yl)-3-[4-(pyridin-4-ylsulfanyl)phenyl]urea] |  | nanomolar range |  | 
 | Cc1cn(-c2cccc(C(=O)Nc3ccc(Oc4ccncc4)cc3)c2)cn1 [Compound 117, 3-(4-methyl-1H-imidazol-1-yl)-N-[4-(pyridin-4-xyloxy)phenyl] benzamide] |  | micromolar range | over 800 fold | 
 | O=C(Nc1ccc(Oc2ccncc2)cc1)c1ccnc(N2CCOCC2)c1 [Compound 124] |  |  | over 800 fold | −0.8± 0.3
